Reference: US20260001879A1, “COMPOUNDS AS MYT1 INHIBITORS” (WIGEN BIOMMEDICINE TECHNOLOGY (SHANGHAI) CO., LTD., priority 2022, published 2026)

molecular target: recombinant protein MYT1 (Homo sapiens (Human), UniProt Q99640); assay: In vitro assay for inhibiting MYT1 kinase activity (ADP-GLO); format: biochemical; conditions: 10 μM ATP, read-out: Inhibitory activity against recombinant protein MYT1 IC50
Description: Recombinant MYT1 protein and the compounds were pre-incubated at room temperature for 15 min, and 10 μM ATP was then added to start the reaction. The mixture was incubated at room temperature for another 60 min, and the ADP-GLO reagent from Promega was then added. The resulting mixture was incubated in the dark for 40 min, a detection solution was then added, and the mixture was incubated for another 45-60 min. The chemiluminescence was determined using ENVISION. The inhibition rate and IC50 were calculated compared to the DMSO group.

Sequence of recombinant protein MYT1 (Q99640 whole entry): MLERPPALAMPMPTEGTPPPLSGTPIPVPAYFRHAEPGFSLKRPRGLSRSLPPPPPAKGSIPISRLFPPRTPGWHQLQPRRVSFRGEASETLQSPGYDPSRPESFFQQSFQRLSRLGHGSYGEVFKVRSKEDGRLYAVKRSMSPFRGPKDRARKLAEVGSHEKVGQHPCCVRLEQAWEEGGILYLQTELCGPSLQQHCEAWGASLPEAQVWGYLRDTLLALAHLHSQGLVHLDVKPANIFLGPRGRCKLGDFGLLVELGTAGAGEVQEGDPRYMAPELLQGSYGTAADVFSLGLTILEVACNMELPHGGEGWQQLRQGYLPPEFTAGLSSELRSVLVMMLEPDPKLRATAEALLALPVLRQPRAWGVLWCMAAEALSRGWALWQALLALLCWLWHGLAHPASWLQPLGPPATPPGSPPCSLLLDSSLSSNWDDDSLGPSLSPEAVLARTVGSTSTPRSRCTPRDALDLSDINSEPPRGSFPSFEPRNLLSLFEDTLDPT

| IC50 | Structure (SMILES) |
| --- | --- |
| ≤ 200 nM | Cc1ccc(O)c(C)c1-n1c(N)c(C(N)=O)c2cc3c(nc21)CNC3 [Compound 84] |
| ≤ 200 nM | Cc1ccc(O)c(C)c1-n1c(N)c(C(N)=O)c2cc3ccsc3nc21 [Compound 74] |
| ≤ 200 nM | Cc1ccc(O)c(C)c1-n1c(N)c(C(N)=O)c2cc3c(nc21)CCC=C3 [Compound 112] |
| ≤ 200 nM | Cc1ccc(O)c(C)c1-n1c(N)c(C(N)=O)c2cc3c(nc21)CN(C)CC3 [Compound 99] |
| ≤ 200 nM | Cc1ccc(O)c(C)c1-n1c(N)c(C(N)=O)c2cc3c(ccn3C)nc21 [Compound 72] |
| ≤ 200 nM | Cc1cc2c(C(N)=O)c(N)n(-c3c(C)cc4c(c3C)NCC4)c2nc1C [Compound 149] |
| ≤ 200 nM | Cc1ccc(O)c(C)c1-n1c(N)c(C(N)=O)c2cc3c(nc21)N(C)CCC3 [Compound 105] |
| ≤ 200 nM | Cc1cc2c(C(N)=O)c(N)n(-c3c(C)ccc(O)c3C)c2c(C#N)c1C [Compound 173] |
| ≤ 200 nM | Cc1ccc(O)c(C)c1-n1c(N)c(C(N)=O)c2cc3c(nc21)N(C)CC3 [Compound 90] |
| ≤ 200 nM | Cc1cc(F)c(O)c(C)c1-n1c(N)c(C(N)=O)c2cc(C#N)c(C)nc21 [Compound 140] |
| ≤ 200 nM | Cc1cc2c(C(N)=O)c(N)n(-c3c(C)ccc(=O)n3C)c2nc1C [Compound 178] |
| ≤ 200 nM | Cc1cc2c(C(N)=O)c(N)n(-c3c(C)c(O)cc(F)c3C)c2nc1C#N [Compound 143] |
| ≤ 200 nM | Cc1ccc(O)c(C)c1-n1c(N)c(C(N)=O)c2cc3occc3nc21 [Compound 62] |
| ≤ 200 nM | Cc1ccc(O)c(C)c1-n1c(N)c(C(N)=O)c2cc3cn(C)cc3nc21 [Compound 73] |
| ≤ 200 nM | Cc1c(O)cc(F)c(C)c1-n1c(N)c(C(N)=O)c2cc3ccccc3nc21 [Compound 179] |
| ≤ 200 nM | Cc1cc2c(C(N)=O)c(N)n(-c3c(C)c(O)cc(C#N)c3C)c2nc1C [Compound 220] |
| ≤ 200 nM | COc1cc(O)c(C)c(-n2c(N)c(C(N)=O)c3cc(C)c(C)nc32)c1C [Compound 223] |

| IC50 | Structure (SMILES) |
| --- | --- |
| ≤ 200 nM | Cc1cc2c(cc1C#N)c(C(N)=O)c(N)n2-c1c(C)ccc(O)c1C [Compound 154] |
| ≤ 200 nM | Cc1cc2c(C(N)=O)c(N)n(-c3c(C)cc(F)c(O)c3Cl)c2nc1C [Compound 8] |
| ≤ 200 nM | Cc1cc2c(C(N)=O)c(N)n(-c3c(C)c(O)cc4occc34)c2nc1C [Compound 129] |
| ≤ 200 nM | Cc1cc2c(C(N)=O)c(N)n(-c3c(C)cc(F)c(O)c3C)c2nc1C (single isomer, unassigned) [Compound 5] |
| ≤ 200 nM | Cc1ccc(O)c(C)c1-n1c(N)c(C(N)=O)c2cc3ccn(C)c3nc21 [Compound 71] |
| ≤ 200 nM | Cc1cc2c(C(N)=O)c(N)n(-c3c(C)c(F)cc(O)c3Cl)c2nc1C [Compound 25] |
| ≤ 200 nM | Cc1ccc(O)c(C)c1-n1c(N)c(C(N)=O)c2cc3cnccc3nc21 [Compound 47] |
| ≤ 200 nM | Cc1ccc(O)c(C)c1-n1c(N)c(C(N)=O)c2cc3c(nc21)OCC3 [Compound 20] |
| ≤ 200 nM | Cc1ccc(O)c(C)c1-n1c(N)c(C(N)=O)c2cc3c(nc21)CCN3 [Compound 77] |
| ≤ 200 nM | Cc1ccc(O)c(C)c1-n1c(N)c(C(N)=O)c2cc3c(nc21)CCO3 [Compound 18] |
| ≤ 200 nM | Cc1cc2c(C(N)=O)c(N)n(-c3c(C)c(O)cc(F)c3C)c2cc1C#N [Compound 166] |
| ≤ 200 nM | Cc1ccc(O)c(C)c1-n1c(N)c(C(N)=O)c2cc3c(nc21)COC3 [Compound 15] |
| ≤ 200 nM | Cc1c(O)cc(F)c(C)c1-n1c(N)c(C(N)=O)c2cc3c(nc21)COC3 [Compound 131] |
| ≤ 200 nM | Cc1ccc(O)c(C)c1-n1c(N)c(C(N)=O)c2cc3ccoc3nc21 [Compound 61] |
| ≤ 200 nM | Cc1cc2c(C(N)=O)c(N)n(-c3c(C)cc4c(c3C)OCC4)c2nc1C [Compound 152] |
| ≤ 200 nM | Cc1nc2c(cc1C#N)c(C(N)=O)c(N)n2-c1c(C)c(O)cc(F)c1C [Compound 137] |
| ≤ 200 nM | Cc1c(O)cc(F)c(C)c1-n1c(N)c(C(N)=O)c2cc3c(nc21)CCC3 [Compound 199] |

Further lines, the compound ahead of its results:

| Structure (SMILES) | IC50 |
| --- | --- |
| Cc1cc2c(C(N)=O)c(N)n(-c3c(C)c(O)cc4c3CCO4)c2nc1C [Compound 121] | ≤ 200 nM |
| Cc1ccc(O)c(C)c1-n1c(N)c(C(N)=O)c2cc3c(nc21)CCOC3 [Compound 29] | ≤ 200 nM |
| Cc1cc2c(C(N)=O)c(N)n(-c3c(C)c(O)cc(Br)c3C)c2nc1C [Compound 196] | ≤ 200 nM |
| Cc1c(O)cc(F)c(C)c1-n1c(N)c(C(N)=O)c2cc3c(nc21)CCCC3 [Compound 202] | ≤ 200 nM |
| Cc1cc2c(cc1C#N)c(C(N)=O)c(N)n2-c1c(C)c(O)cc(F)c1C [Compound 160] | ≤ 200 nM |
| Cc1c(O)cc(F)c(C)c1-n1c(N)c(C(N)=O)c2cc3c(nc21)C=CC3 [Compound 214] | ≤ 200 nM |
| Cc1ccc(O)c(C)c1-n1c(N)c(C(N)=O)c2cc3c(nc21)CCCO3 [Compound 26] | ≤ 200 nM |
| Cc1ccc(O)c(C)c1-n1c(N)c(C(N)=O)c2cc3ncsc3nc21 [Compound 69] | ≤ 200 nM |
| Cc1cc2c(C(N)=O)c(N)n(-c3c(C(F)(F)F)ccc(O)c3C)c2nc1C#N [Compound 186] | ≤ 200 nM |
| Cc1ccc(O)c(C)c1-n1c(N)c(C(N)=O)c2cc3nccnc3cc21 [Compound 60] | ≤ 200 nM |
| Cc1ccc(O)c(C)c1-n1c(N)c(C(N)=O)c2cc3cnncc3nc21 [Compound 56] | ≤ 200 nM |
| Cc1ccc(O)c(C)c1-n1c(N)c(C(N)=O)c2cc3sccc3nc21 [Compound 75] | ≤ 200 nM |
| Cc1ccc(O)c(C)c1-n1c(N)c(C(N)=O)c2cc3c(nc21)CN(C)C3 [Compound 93] | ≤ 200 nM |
| Cc1cc2c(C(N)=O)c(N)n(-c3c(C)c(O)cc4ccoc34)c2nc1C [Compound 130] | ≤ 200 nM |
| Cc1cc2c(C(N)=O)c(N)n(-c3c(C)cnc(O)c3C)c2nc1C [Compound 177] | ≤ 200 nM |
| Cc1ccc(O)c(C)c1-n1c(N)c(C(N)=O)c2cc3ocnc3nc21 [Compound 68] | ≤ 200 nM |
| Cc1ccc(O)c(C)c1-n1c(N)c(C(N)=O)c2cc3c(nc21)OCO3 [Compound 38] | ≤ 200 nM |
| Cc1cc(F)c(O)c(C)c1-n1c(N)c(C(N)=O)c2cc3c(nc21)COC3 [Compound 134] | ≤ 200 nM |
| Cc1cc2c(C(N)=O)c(N)n(-c3c(C)cc(F)c(O)c3C)c2nc1C#N [Compound 146] | ≤ 200 nM |
| Cc1ccc(O)c(C)c1-n1c(N)c(C(N)=O)c2cc3ccncc3nc21 [Compound 44] | ≤ 200 nM |
| Cc1ccc(O)c(C)c1-n1c(N)c(C(N)=O)c2cc3c(nc21)CCCN3C [Compound 104] | ≤ 200 nM |
| Cc1ccc(O)c(C)c1-n1c(N)c(C(N)=O)c2cc3scnc3nc21 [Compound 70] | ≤ 200 nM |
| Cc1ccc(O)c(C)c1-n1c(N)c(C(N)=O)c2cc3c(nc21)CCN3C [Compound 87] | ≤ 200 nM |
| Cc1ccc(O)c(C)c1-n1c(N)c(C(N)=O)c2cc3nc[nH]c3nc21 [Compound 64] | ≤ 200 nM |
| Cc1ccc(O)c(C)c1-n1c(N)c(C(N)=O)c2cc3cnncc3cc21 [Compound 59] | ≤ 200 nM |

| Structure (SMILES) | IC50 |
| --- | --- |
| Cc1cc2c(C(N)=O)c(N)n(-c3c(C)c(O)cc(F)c3Cl)c2nc1C [Compound 24] | ≤ 200 nM |
| Cc1ccc(O)c(C)c1-n1c(N)c(C(N)=O)c2cc3c(nc21)NCCC3 [Compound 103] | ≤ 200 nM |
| Cc1ccc(O)c(C)c1-n1c(N)c(C(N)=O)c2cc3c(nc21)CCCN3 [Compound 102] | ≤ 200 nM |
| Cc1ccc(O)c(C)c1-n1c(N)c(C(N)=O)c2cc3ncccc3nc21 [Compound 50] | ≤ 200 nM |
| Cc1ccc(O)c(C)c1-n1c(N)c(C(N)=O)c2cc3c(nc21)OCCC3 [Compound 35] | ≤ 200 nM |
| Cc1cc2c(C(N)=O)c(N)n(-c3c(C)ccc(O)c3C(F)(F)F)c2nc1C#N [Compound 187] | ≤ 200 nM |
| Cc1ccc(O)c(C)c1-n1c(N)c(C(N)=O)c2cc3c(nc21)C=CC3 [Compound 109] | ≤ 200 nM |
| Cc1ccc(O)c(C)c1-n1c(N)c(C(N)=O)c2cc3nccnc3nc21 [Compound 53] | ≤ 200 nM |
| Cc1ccc(O)c(C)c1-n1c(N)c(C(N)=O)c2cc3c(nc21)NCC3 [Compound 80] | ≤ 200 nM |
| Cc1cc2c(cc1C#N)c(C(N)=O)c(N)n2-c1c(C)cc(F)c(O)c1C [Compound 163] | ≤ 200 nM |
| Cc1ccc(O)c(C)c1-n1c(N)c(C(N)=O)c2cc3c(nc21)COCC3 [Compound 32] | ≤ 200 nM |
| Cc1ccc(O)c(C)c1-n1c(N)c(C(N)=O)c2cc3c(nc21)CC=C3 [Compound 106] | ≤ 200 nM |
| Cc1ccc(O)c(C(F)(F)F)c1-n1c(N)c(C(N)=O)c2cc(C#N)c(C)nc21 [Compound 181] | ≤ 200 nM |
| Cc1ccc(O)c(C)c1-n1c(N)c(C(N)=O)c2cc3ncn(C)c3nc21 [Compound 65] | ≤ 200 nM |
| Cc1cc2c(C(N)=O)c(N)n(-c3c(C)c(C)cc(O)c3C)c2nc1C [Compound 205] | ≤ 200 nM |
| Cc1ccc(O)c(C)c1-n1c(N)c(C(N)=O)c2cc3c(ncn3C)nc21 [Compound 66] | ≤ 200 nM |
| Cc1ccc(O)c(C)c1-n1c(N)c(C(N)=O)c2cc3cocc3nc21 [Compound 63] | ≤ 200 nM |
| Cc1ccc(O)c(C)c1-n1c(N)c(C(N)=O)c2cc3cscc3nc21 [Compound 76] | ≤ 200 nM |
| Cc1cc2c(C(N)=O)c(N)n(-c3c(C)c(O)cc4c3OCC4)c2nc1C [Compound 118] | ≤ 200 nM |
| Cc1ccc(O)c(C)c1-n1c(N)c(C(N)=O)c2cc3ncoc3nc21 [Compound 67] | ≤ 200 nM |
| Cc1cc2c(C(N)=O)c(N)n(-c3c(C)c(O)cc(I)c3C)c2nc1C [Compound 217] | ≤ 200 nM |
| Cc1cc2c(C(N)=O)c(N)n(-c3c(C)ccc(O)c3C)c2cc1C#N [Compound 157] | ≤ 200 nM |
| Cc1cc2c(C(N)=O)c(N)n(-c3c(C)c(O)cc4c3CCC4)c2nc1C [Compound 115] | ≤ 200 nM |
| Cc1cc2c(C(N)=O)c(N)n(-c3c(C)c(O)cc(F)c3C)c2nc1C (single isomer, unassigned) [Compound 1] | ≤ 200 nM |
